# Where a name gives a salt, the structure may show the parent alone.
# Assay: Aqueous chemical stability, 100 mM phosphate buffer, HPLC (Table 3)
# Assay type: physicochemical
# Conditions: buffer phosphate (100 mM), 37° C., half-lives >360 min estimated from initial slope
# Method: Stock solutions of the compounds in acetonitrile or acetonitrile/methanol were prepared at 20 mg/mL and 20 μL, spiked into 3 mL of buffer phosphate (100 mM) and incubated at 37° C. Aliquots (50 μL) were sampled at different time points and diluted 20 fold with ammonium formate (pH 3.5)/acetonitrile. The diluted samples were analyzed by HPLC. The peak areas corresponding to the compounds were plotted against time and the data were fitted to a first-order mono-exponential decay where the rate constant and the half-life were determined (Table 3).
row,SMILES,"pH 8 (t ½, min) [min]"
1,"COC(=O)/C=C/C(=O)OCCN(CC(=O)O)CC(=O)O [Compound 1, (E)-2,2′-((2-((4-methoxy-4-oxobut-2-enoyl)oxy)ethyl)azanediyl)diacetic acid hydrochloride]",15
2,"COC(=O)/C=C/C(=O)OCC[N+](C)(C)C [Compound 4, (E)-2-((4-methoxy-4-oxobut-2-enoyl)oxy)-N,N,N-trimethylethanaminium iodide]",45
3,"COC(=O)/C=C/C(=O)OCCN1CCC(F)(F)CC1 [Compound 5, 2-(4,4-difluoropiperidin-1-yl)ethyl methyl fumarate hydrochloride]",24
4,"COC(=O)/C=C/C(=O)OC(C)CN(C)C (centres unmarked) [Compound 6, 1-(dimethylamino)propan-2-yl methyl fumarate hydrochloride]",2.0
5,"COC(=O)/C=C/C(=O)OCCN1CCSCC1 [Compound 7, Methyl (2-thiomorpholinoethyl) fumarate hydrochloride]",26.0
6,"COC(=O)/C=C/C(=O)OCCNc1ccccc1 [Compound 8, Methyl (2-(phenylamino)ethyl) fumarate hydrochloride]",36.0
7,"COC(=O)/C=C/C(=O)OCC(C)(C)N(C)C [Compound 9, 2-(dimethylamino)-2-methylpropyl methyl fumarate hydrochloride]",7.0
8,"COC(=O)/C=C/C(=O)OCCS(C)(=O)=O [Compound 10, Methyl (2-(methylsulfonyl)ethyl) fumarate]",67.0
9,"COC(=O)/C=C/C(=O)OCCN1CCS(=O)(=O)CC1 [Compound 11, 2-(1,1-dioxidothiomorpholino)ethyl methyl fumarate hydrochloride]",>240
10,"COC(=O)/C=C/C(=O)OCCN1CCCCC1 [Compound 15, Methyl (2-(piperidin-1-yl)ethyl) fumarate hydrochloride]",3.0
11,"COC(=O)/C=C/C(=O)OCCN1CCOCC1 [Compound 16, Methyl (2-morpholinoethyl) fumarate hydrochloride]",20.0
12,"COC(=O)/C=C/C(=O)OCCN1CCC2(CC1)OCCO2 [Compound 17, 2-(1,4-dioxa-8-azaspiro[4.5]decan-8-yl)ethyl methyl fumarate hydrochloride]",11.0
13,"COC(=O)/C=C/C(=O)OCCN1CCCC1 [Compound 18, Methyl (2-(pyrrolidin-1-yl)ethyl) fumarate hydrochloride]",5.0
14,"COC(=O)/C=C/C(=O)OCCN(C)C [Compound 19, 2-(dimethylamino)ethyl methyl fumarate hydrochloride]",6.0
15,"CCN(CC)CCOC(=O)/C=C/C(=O)OC [Compound 20, 2-(diethylamino)ethyl methyl fumarate hydrochloride]",5.0
16,"CCN(CC)C(=O)COC(=O)/C=C/C(=O)OC [Reference Compound A, 2-(diethylamino)-2-oxoethyl methyl fumarate, reference compound]",120

# Assay: Aqueous chemical stability, 50 mM phosphate buffer pH 8, HPLC-UV (Table 4)
# Assay type: physicochemical
# Conditions: 50 mM buffer phosphate pH 8, 37° C., HPLC UV 211 nm
# Method: Stock solutions of the compounds in acetonitrile or acetonitrile/MeOH were prepared at 0.05M. A 0.010 mL aliquot of the stock was spiked into 1 mL of 50 mM buffer phosphate pH 8 and incubated at 37° C. Typically, aliquots (0.010 mL) were sampled at different time points and immediately injected in the HPLC with UV detection (211 nm). The peak areas corresponding to the compounds were plotted against time and the data were fitted to a first-order mono-exponential decay where the rate constant and the half-life were determined from the slope (Table 4).
row,SMILES,"pH 8 (t ½, min) [min]"
1,"COC(=O)/C=C/C(=O)OCCN(CC(=O)O)CC(=O)O [Compound 1, (E)-2,2′-((2-((4-methoxy-4-oxobut-2-enoyl)oxy)ethyl)azanediyl)diacetic acid hydrochloride]",15
2,"COC(=O)/C=C/C(=O)OCC[N+](C)(C)C [Compound 4, (E)-2-((4-methoxy-4-oxobut-2-enoyl)oxy)-N,N,N-trimethylethanaminium iodide]",30
3,"COC(=O)/C=C/C(=O)OCCN1CCC(F)(F)CC1 [Compound 5, 2-(4,4-difluoropiperidin-1-yl)ethyl methyl fumarate hydrochloride]",24
4,"COC(=O)/C=C/C(=O)OC(C)CN(C)C (centres unmarked) [Compound 6, 1-(dimethylamino)propan-2-yl methyl fumarate hydrochloride]",2
5,"COC(=O)/C=C/C(=O)OCCN(C)C [Compound 19, 2-(dimethylamino)ethyl methyl fumarate hydrochloride]",117
6,"COC(=O)/C=C/C(=O)OCCN1C(=O)C2CC2C1=O (centres unmarked) [Compound 22, 2-(2,4-Dioxo-3-azabicyclo[3.1.0]hexan-3-yl)ethyl methyl fumarate]",144
7,"COC(=O)/C=C/C(=O)OCCN1C(=O)[C@@H](C)[C@@H](C)C1=O [Compound 23, 2-((3R,4S)-3,4-Dimethyl-2,5-dioxopyrrolidin-1-yl)ethyl methyl fumarate]",186
8,"COC(=O)/C=C/C(=O)OCC[N+]1([O-])CCOCC1 [Compound 26, (E)-4-(2-((4-methoxy-4-oxobut-2-enoyl)oxy)ethyl)morpholine 4-oxide]",129
9,"COC(=O)/C=C/C(=O)OCCN1C(=O)COCC1=O [Compound 27, 2-(3,5-dioxomorpholino)ethyl methyl fumarate]",37
10,"COC(=O)/C=C/C(=O)OCCN1CCOC(C)(C)C1 [Compound 28, 2-(2,2-dimethylmorpholino)ethyl methyl fumarate hydrochloride]",<10
11,"COC(=O)/C=C/C(=O)OCCN1CC(C)OC(C)C1 (centres unmarked) [Compound 29, 2-(2,6-dimethylmorpholino)ethyl methyl fumarate hydrochloride]",<10
12,"COC(=O)/C=C/C(=O)OCCN1CCOCC1=O [Compound 30, Methyl (2-(3-oxomorpholino)ethyl) fumarate]",229
13,"COC(=O)/C=C/C(=O)OCCN1CCOC(=O)C1 [Compound 31, Methyl (2-(2-oxomorpholino)ethyl) fumarate hydrochloride]",26
14,"COC(=O)/C=C/C(=O)OCCN1CC2CCC(C1)O2 [Compound 32, 2-(8-Oxa-3-azabicyclo[3.2.1]octan-3-yl)ethyl methyl fumarate hydrochloride]",13
15,"COC(=O)/C=C/C(=O)OCCN1CCOC(CN(C)C)C1 (centres unmarked) [Compound 33, 2-(2-((Dimethylamino)methyl)morpholino)ethyl methyl fumarate hydrochloride]",115
16,"COC(=O)/C=C/C(=O)OCCN1C(=O)CC(C)(C)C1=O [Compound 37, 2-(3,3-Dimethyl-2,5-dioxopyrrolidin-1-yl)ethyl methyl fumarate]",182
17,"COC(=O)/C=C/C(=O)OCCN1CCCC1=O [Compound 38, Methyl (2-(2-oxopyrrolidin-1-yl)ethyl) fumarate]",201
18,"COC(=O)/C=C/C(=O)OCCN1CCOC1=O [Compound 39, Methyl (2-(2-oxooxazolidin-3-yl)ethyl) fumarate]",183
19,"COC(=O)/C=C/C(=O)OCCN1C(=O)NC(C)(C)C1=O [Compound 40, 2-(4,4-Dimethyl-2,5-dioxoimidazolidin-1-yl)ethyl methyl fumarate]",203
20,"CCC(=O)N(CCOC(=O)/C=C/C(=O)OC)C(=O)CC [Compound 42, Methyl (2-(N-propionylpropionamido)ethyl) fumarate]",158
21,"COC(=O)/C=C/C(=O)OCCNC(C)=O [Compound 43, 2-Acetamidoethyl methyl fumarate]",177.5
22,"COC(=O)/C=C/C(=O)OCCN(C(C)=O)C(C)=O [Compound 44, 2-(N-Acetylacetamido)ethyl methyl fumarate]",145
23,"COC(=O)/C=C/C(=O)OCCNC(=O)OC(C)(C)C [Compound 48, 2-((tert-butoxycarbonyl)amino)ethyl methyl fumarate]",220
24,"COC(=O)/C=C/C12COC(C)(CO1)CO2 [Compound 130, (E)-Methyl 3-(4-methyl-2,5,7-trioxabicyclo[2.2.2]octan-1-yl)acrylate]",1010
25,"C#CCOC(=O)/C=C/C(=O)OC [Compound 131, Methyl prop-2-yn-1-yl fumarate]",96
26,"COC(=O)/C=C/C(=O)OCCCN1C(=O)CCC1=O [Compound 133, 3-(2,5-Dioxopyrrolidin-1-yl)propyl methyl fumarate]",246

# Assay: Physical stability in crystalline form by thermogravimetric analysis (TGA)
# Assay type: physicochemical
# Conditions: DMF loss in less than 4 hours
# Method: The physical stability of compounds of the present invention and DMF were measured via thermogravimetric analysis (TGA).
row,SMILES,weight loss at 60° C. vs time
1,"COC(=O)/C=C/C(=O)OCCN1C(=O)CCC1=O [Compound 14, 2-(2,5-dioxopyrrolidin-1-yl)ethyl methyl fumarate]",no change
2,"COC(=O)/C=C/C(=O)OC [DMF, Dimethyl fumarate, reference compound]",~100%
